What was measured:
[1] = system: hair growth in C57BL/6 mice skin tissue; test: Induction of hair growth phase in depilated C57BL/6 mice (topical, 30 days); assay type: in vivo; conditions: applied once a day for 30 days
Protocol: 6-week-old C57BL/6 female mice with white or pink back skin were used as experimental animals and the experiment was conducted according to guidelines for the management and use of laboratory animals approved by the Animal Research Ethics Committee of the Korea Institute of Science and Technology (approval number: […]-2018-081). […] The back hairs of the mice were depilated using an electric shaver and a test substance was applied to the depilated area once a day for 30 days. […] 30 days after treatment with the sample, the hairs were randomly collected, the thickness and length of the hairs were measured, and the results are shown in FIG. 3 and Table 1. On the last day of application of the test substance, the mice were sacrificed to obtain skin tissues, and then tissues were fixed with paraffin and then prepared into tissue slices. These were stained with hematoxylin and eosin (H&E) and observed under a microscope (100×), and the results are shown in FIG. 4.

[2] = system: lipid peroxide production in liver homogenate; test: Inhibition of lipid peroxide formation in rat liver homogenate (TBA method); assay type: biochemical, Sprague-Dawley rats; conditions: positive controls, FeSO4/ascorbic acid, 37° C., 30 minutes, mean ± standard error, read-out: Lipid peroxide production inhibitory activity IC50
Protocol: Lipid peroxide is a substance produced by peroxidation of lipids through various oxidation reactions. Reactive oxygen species, free radicals and the like oxidize phospholipids of cell membranes containing great amounts of unsaturated fatty acids, producing lipid peroxides in the cell membranes. […] The animals used in the experiment were male Sprague-Dawley rats, and only water was supplied for 24 hours before the experiment.

[3] = A. ageratoides 1%, minoxidil 3%

SMILES | hair thickness ([1]; 1% Aster ageratoides extract, 3% minoxidil) [μm] | Hair length [1, 3] | Hair width [1, 3] [µm] | Hair length ([1]; A. ageratoides 1%, minoxidil 3%, listed as positive control) [mm] | IC50 [2] [µM]
Nc1cc(N2CCCCC2)nc(N)[n+]1[O-] [Minoxidil, minoxidil] | 53.19±4.04 | 6-9 mm | 53.2 ± 4.04 | 6 to 9 | 
Cc1c(C)c2c(c(C)c1O)CCC(C)(C(=O)O)O2 (centres unmarked) [Trolox] |  |  |  |  | > 100

From patent publication US20210113640A1, “COMPOSITION FOR PROMOTING HAIR GROWTH OR PREVENTING HAIR LOSS CONTAINING EXTRACT OF ASTER AGERATOIDES” (KOREA INSTITUTE OF SCIENCE AND TECHNOLOGY, priority 2019, published 2021)
